Entries after “also recorded” stand apart in the source; their conditions may differ.
Legend:
ACTH and cortisol levels = conditions: Cushing's syndrome patients; cited from earlier work
glucocorticoid receptor = glucocorticoid receptor (Homo sapiens, UniProt P04150); conditions: HepG2 cells; cited from earlier work
[1] = test system: plasma ACTH, cortisol levels; assay: Plasma ACTH, cortisol and DST in a GRADIENT study patient; assay type: in vivo, human; conditions: FIG. 2 patient
Description: (§1) The following protocol describes the GRADIENT clinical trial, an on-going, randomized, double-blind, placebo-controlled Phase 3 study which focuses on patients with hypercortisolism secondary to adrenal adenoma(s) or hyperplasia (ClinicalTrials.gov Identifier: NCT04308590). This study includes patients with cortisol-secreting adrenal adenomas or hyperplasia associated with DM/IGT (diabetes […] (DM) and/or impaired glucose tolerance (IGT)) and/or uncontrolled systolic hypertension. The study enrolled patients with hypercortisolism due to cortisol secreting adrenal adenomas or hyperplasia. These patients may or may not present the classic clinical manifestations of overt Cushing syndrome (i.e., facial appearance, buffalo hump, striae, etc.). Patients were identified as suffering from cortisol-secreting adrenal gland tumors based on abnormal dexamethasone suppression test (DST) and low ACTH. Patients could receive medications that were commonly used to treat diabetes, hypertension, or dyslipidemia if required. Following screening, those patients meeting study criteria were randomly assigned to receive doses of either placebo or relacorilant for 22 weeks of treatment. Patient follow-up was within 28 days of the last dose. Total patient participation in the study was up to 32 weeks. The GRADIENT study design is illustrated in FIG. 1. Patients discussed herein were participants in the GRADIENT study. […] The starting dose at Baseline was 100 mg relacorilant or matching placebo once daily for 2 weeks, after which the dose was increased to 200 mg. As tolerated, the dose was then increased by 100 mg to 300 mg once daily after 4 weeks, and, as tolerated, the dose was then increased to 400 mg once daily after another 4 weeks. If a dose was not tolerated, dose interruption, dose reduction, and dose re-escalation were allowed. Patients were maintained at a once-daily dose of 400 mg, or at their highest tolerated dose. Dose titrations after 18 weeks were not permitted. Patients who completed the study were permitted to continue relacorilant treatment in an extension study if they have at least 80% adherence with scheduled dosing (by capsule counts), and are expected to maintain clinical benefit from the study drug. Although not expected to regress, adrenal tumors progress very slowly, and rarely progress into overt Cushing syndrome ([…] et al. 2016 Eur J Endocrinol. 175 (2):G1-[…]. doi: 10.1530/EJE-16-0467). Patients receiving placebo continued to receive their previously prescribed medications; thus, although the placebo was not expected to provide additional benefit to those patients receiving placebo, neither was any detriment expected. […]

pituitary macroadenomas = conditions: following administration of relacorilant; cited from earlier work
[2] = test system: cortisol-secreting adrenal adenoma; assay: CT imaging of adrenal gland tumor size in GRADIENT study patients; assay type: in vivo, human
Description: as §1, with “expected. Relacorilant was supplied as 100 mg capsules for oral dosing.” for “expected.”

Chain of glucocorticoid receptor (P04150 whole entry): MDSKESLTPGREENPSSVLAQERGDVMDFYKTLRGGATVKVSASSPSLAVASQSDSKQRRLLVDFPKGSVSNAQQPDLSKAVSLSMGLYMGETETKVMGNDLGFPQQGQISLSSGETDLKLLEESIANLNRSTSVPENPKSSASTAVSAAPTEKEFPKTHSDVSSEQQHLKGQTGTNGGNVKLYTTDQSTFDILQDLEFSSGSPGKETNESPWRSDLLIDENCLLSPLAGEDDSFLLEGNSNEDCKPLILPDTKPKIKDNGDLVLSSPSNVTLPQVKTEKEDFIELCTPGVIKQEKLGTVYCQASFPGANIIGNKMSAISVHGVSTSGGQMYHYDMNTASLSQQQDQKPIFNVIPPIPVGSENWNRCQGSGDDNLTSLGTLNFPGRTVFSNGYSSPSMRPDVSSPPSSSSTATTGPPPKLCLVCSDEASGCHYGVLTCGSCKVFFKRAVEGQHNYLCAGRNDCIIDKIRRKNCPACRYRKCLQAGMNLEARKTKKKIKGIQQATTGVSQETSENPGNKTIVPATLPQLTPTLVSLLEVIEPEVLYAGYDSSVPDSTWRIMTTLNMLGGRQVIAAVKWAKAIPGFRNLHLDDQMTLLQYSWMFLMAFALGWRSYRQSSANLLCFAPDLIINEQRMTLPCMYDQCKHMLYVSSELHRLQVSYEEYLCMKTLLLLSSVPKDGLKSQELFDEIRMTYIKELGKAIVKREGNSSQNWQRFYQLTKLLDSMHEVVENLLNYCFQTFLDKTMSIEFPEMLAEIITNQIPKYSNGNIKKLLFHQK

SMILES	ACTH levels (in words) (ACTH and cortisol levels)	cortisol levels (in words) (ACTH and cortisol levels)	activity of tyrosine aminotransferase (TAT) (in words) (glucocorticoid receptor)	cortisol levels (in words) ([1]; after relacorilant treatment)	dexamethasone suppression test (DST) (in words) ([1]; after relacorilant treatment)	ACTH levels (in words) ([1]; at 6 months of relacorilant administration)	plasma ACTH level ([1]; since 6 months of relacorilant, undetectable before treatment)	pituitary macroadenoma size (in words) (pituitary macroadenomas)	size of adrenal adenoma (CT) ([2]; FIG. 2 patient, benign cortisol-secreting adenoma, daily relacorilant 100 up to 400 mg/day for almost two years, initial size 4.2 cm)	degenerative changes inside the adenoma (CT) ([2]; FIG. 2 patient, after almost two years of daily relacorilant, not present in initial scan)	maximum tumor dimension (CT measurement line) ([2]; FIG. 3 patient, at least 3 months daily relacorilant 100 up to 400 mg/day, 34.09 mm / 34.08 mm before treatment)	change in adrenal gland tumor size following treatment (in words) ([2]; individual patients, daily relacorilant up to 400 mg/day)
CC#C[C@]1(O)CC[C@H]2[C@@H]3CCC4=CC(=O)CCC4=C3[C@@H](c3ccc(N(C)C)cc3)C[C@@]21C [mifepristone]	increased	increased	decreases									
Cn1cc(S(=O)(=O)N2CCC3=Cc4c(cnn4-c4ccc(F)cc4)C[C@]3(C(=O)c3cc(C(F)(F)F)ccn3)C2)cn1 [relacorilant, (R)-(1-(4-fluorophenyl)-6-((1-methyl-1H-pyrazol-4-yl)sulfonyl)-4,4a,5,6,7,8-hexahydro-1H-pyrazolo[3,4-g]isoquinolin-4a-yl)(4-(trifluoromethyl)pyridine-2-yl)methanone]				decreased	normalized	normalized	15 to 18 pg/mL	shrink	3.1 cm	exhibits areas of degeneration; also recorded: developed fat droplets	30.99 mm	reduced; also recorded: decreased

Source: patent US20240390341A1, “METHODS FOR TREATING ADRENAL GLAND TUMORS” (Corcept Therapeutics Incorporated, priority 2023, published 2024)
